≈ marks a conversion by molar mass, not a printed value.
Tests used:
[1] = test system: C. albicans; test: In vitro antifungal activity, MIC by serial agar dilution method (C. albicans); assay type: cell-based; conditions: Sabouraud dextrose agar, 44 hours at 28° C.; for MIC: Candida albicans
Protocol: (§1) Antifungal activities of representative compounds of the present invention were evaluated both in vitro and in vivo. The minimum inhibitory concentrations (MICs) against various fungi were determined by serial agar dilution method using Sabouraud dextrose agar. Thus, approximately 0.003 ml of fungal suspension containing 10^6 cells/ml was applied to the surface of agar plates containing the test antibiotics. The MIC values recorded after the cultures had been incubated for 44 hours at 28° C. are set forth below in Table I.

[2] = test system: C. neoformans; test: In vitro antifungal activity, MIC by serial agar dilution method (C. neoformans); assay type: cell-based; conditions: Sabouraud dextrose agar, 44 hours at 28° C.; for MIC: Cryptococcus neoformans
Protocol: as §1

[3] = test system: A. fumigatus; test: In vitro antifungal activity, MIC by serial agar dilution method (A. fumigatus); assay type: cell-based; conditions: Sabouraud dextrose agar, 44 hours at 28° C.; for MIC: Aspergillus fumigatus
Protocol: as §1

[4] = test system: T. mentagrophytes; test: In vitro antifungal activity, MIC by serial agar dilution method (T. mentagrophytes); assay type: cell-based; conditions: Sabouraud dextrose agar, 44 hours at 28° C.; for MIC: Trichophyton mentagrophytes
Protocol: as §1

[5] = test system: Candida albicans A9540; test: In vivo activity against Candida albicans A9540 infection in mice; conditions: A9540, 480 h, male ICR mice, intravenous just after i.v. infection, survival on 20th day, read-out: PD50 (dose that protects 50% of the animals from infection)
Protocol: In vivo activity of compounds of the present invention was tested against Candida albicans A9540 infection in mice. Test organisms were cultured for 18 hours at 28° C. in YGP medium (yeast extract, glucose, peptone, K2 HPO4, MgSO4) and then suspended in saline. Male ICR mice weighing 20 to 24 g were infected intravenously with about 10 times the median lethal dose of the test fungus. The antibiotic at various dose levels was administered to groups of 5 mice each intravenously just after the fungal infection. The dose that protects 50% of the animals from infection (PD50, mg/kg) was calculated from survival rates recorded on the 20th day after the fungal challenge. All control animals died within 7 to 15 days after infection. The PD50 for compounds of Examples 2, 4, and 5 are 18 mg/kg, 11 mg/kg and 8.8 mg/kg, respectively.

[6] = test system: calcium ion and calmodulin-dependent cyclic nucleotide phosphodiesterase; conditions: cited from earlier work

Molecule	MIC [1] [µg/mL]	MIC [2] [µg/mL]	MIC [3] [µg/mL]	MIC [4] [µg/mL]	ED50 [5] [mg/kg]	inhibitor of calcium ion and calmodulin-dependent cyclic nucleotide phosphodiesterase [6]	MIC C. albicans [1] [µg/mL]	MIC C. neoformans [2] [µg/mL]	MIC A. fumigatus [3] [µg/mL]	MIC T. mentagrophytes [4] [µg/mL]
CN[C@@H]1[C@H](O[C@@H]2OC[C@@H](O)[C@H](O)[C@H]2O)[C@@H](O)[C@H](O[C@H]2c3cc(C)c(C(=O)N[C@H](C)C(=O)N[C@H](C)C(=O)O)c(O)c3-c3c(cc4c(c3O)C(=O)c3cc(OC)cc(O)c3C4=O)[C@@H]2O)O[C@@H]1C [Example 1, D-alanyl Pradimicin A]	25 (≈ 27.4 µM)	6.3 (≈ 6.91 µM)	> 100	> 100						
CN[C@@H]1[C@H](O[C@@H]2OC[C@@H](O)[C@H](O)[C@H]2O)[C@@H](O)[C@H](O[C@H]2c3cc(C)c(C(=O)N[C@H](C)C(=O)N(C)C)c(O)c3-c3c(cc4c(c3O)C(=O)c3cc(OC)cc(O)c3C4=O)[C@@H]2O)O[C@@H]1C [Example 2, Pradimicin A Dimethylamide]	12.5 (≈ 14.4 µM)	1.6 (≈ 1.84 µM)	6.3 (≈ 7.26 µM)	12.5 (≈ 14.4 µM)	18					
CN[C@@H]1[C@H](O[C@@H]2OC[C@@H](O)[C@H](O)[C@H]2O)[C@@H](O)[C@H](O[C@H]2c3cc(C)c(C(=O)N[C@H](C)C(=O)NN)c(O)c3-c3c(cc4c(c3O)C(=O)c3cc(OC)cc(O)c3C4=O)[C@@H]2O)O[C@@H]1C [Example 3, Pradimicin A Hydrazide]	50 (≈ 58.5 µM)	3.1 (≈ 3.63 µM)	25 (≈ 29.2 µM)	25 (≈ 29.2 µM)						
CN[C@@H]1[C@H](O[C@@H]2OC[C@@H](O)[C@H](O)[C@H]2O)[C@@H](O)[C@H](O[C@H]2c3cc(C)c(C(=O)N[C@H](C)C(N)=O)c(O)c3-c3c(cc4c(c3O)C(=O)c3cc(OC)cc(O)c3C4=O)[C@@H]2O)O[C@@H]1C [Example 4, Pradimicin A Amide]	6.3 (≈ 7.5 µM)	1.6 (≈ 1.91 µM)	6.3 (≈ 7.5 µM)	12.5 (≈ 14.9 µM)	11					
CNC(=O)[C@@H](C)NC(=O)c1c(C)cc2c(c1O)-c1c(cc3c(c1O)C(=O)c1cc(OC)cc(O)c1C3=O)[C@H](O)[C@H]2O[C@@H]1O[C@H](C)[C@H](NC)[C@H](O[C@@H]2OC[C@@H](O)[C@H](O)[C@H]2O)[C@H]1O [Example 5, Pradimicin A Methylamide]	6.3 (≈ 7.38 µM)	1.6 (≈ 1.87 µM)	6.3 (≈ 7.38 µM)	6.3 (≈ 7.38 µM)	8.8					
CN[C@@H]1[C@H](O[C@@H]2OC[C@@H](O)[C@H](O)[C@H]2O)[C@@H](O)[C@H](O[C@H]2c3cc(C)c(C(=O)N[C@H](C)C(=O)NCC(=O)O)c(O)c3-c3c(cc4c(c3O)C(=O)c3cc(OC)cc(O)c3C4=O)[C@@H]2O)O[C@@H]1C [Example 7, Glycyl Pradimicin A]	> 50	12.5 (≈ 13.9 µM)	> 50	> 50						
CC(=O)Cc1cc2c(c(O)c1C(=O)O)-c1cc3c(c(O)c1CC2)C(=O)c1c(O)cc(O)cc1C3=O [KS-619-1]						inhibitor				
Pradimicin A Butylamide [Example 6]							100	3.1	50	100

From patent US5053395A, “Pradimicin amide derivatives” (Bristol-Myers Company, priority 1989, dated 1991)
